Data taken from the supplement of paper PMC10307832.

How the values were obtained:
Experiment in all cases: relative viability (nuclei count vs DMSO), 5 days (fraction); higher = more cells survive
[1] = compound: O=C(Nc1cc(C(F)(F)F)cc(C(F)(F)F)c1)c1cc(Cl)ccc1O [IMD-0354] + NC(=O)Nc1cc(-c2cccc(F)c2)sc1C(=O)N[C@H]1CCCNC1 [AZD7762] (partner 0.2 µM)
Method in brief: (§1)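 For relative viability, nuclei counts in treated wells were divided by those in vehicle wells. Lung cancer cell lines had been pin-tool dosed in 1536-well plates the day after seeding and cultured for 5 days, then fixed and stained in one step (final 0.05% Triton X-100, 1% formaldehyde, 1 ug/ml Hoechst) and imaged at 4×. Doses were one drug alone or a fixed anchor-drug dose plus five library-drug doses (not always all listed) in √10 steps, and values are duplicate-plate medians.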

[2] = compound: Cc1cnc(CNC(=O)c2c(=O)c3ccc(N4CCCN(C)CC4)nc3n3c2sc2ccccc23)cn1 [CX-5461] + CC(C)C[C@H](NC(=O)[C@H](Cc1ccccc1)NC(=O)c1cnccn1)B(O)O [Bortezomib] (partner 0.002 µM)
Method in brief: as §1

[3] = compound: Cc1cnc(CNC(=O)c2c(=O)c3ccc(N4CCCN(C)CC4)nc3n3c2sc2ccccc23)cn1 [CX-5461] + C[C@@H](Oc1cc(-c2cnn(C3CCNCC3)c2)cnc1N)c1c(Cl)ccc(F)c1Cl [Crizotinib] (partner 1 µM)
Method in brief: as §1

[4] = compound: O=C(Nc1cc(C(F)(F)F)cc(C(F)(F)F)c1)c1cc(Cl)ccc1O [IMD-0354] + CC(C)C[C@H](NC(=O)[C@H](Cc1ccccc1)NC(=O)c1cnccn1)B(O)O [Bortezomib] (partner 0.002 µM)
Method in brief: as §1

Cell Line	relative viability ([1]; first compound 0.04 µM)	relative viability ([1]; first compound 0.1265 µM)	relative viability ([1]; first compound 0.4 µM)	relative viability ([1]; first compound 1.265 µM)	relative viability ([1]; first compound 4 µM)	relative viability ([2]; first compound 0.01 µM)	relative viability ([2]; first compound 0.03162 µM)	relative viability ([2]; first compound 0.1 µM)	relative viability ([2]; first compound 0.3162 µM)	relative viability ([2]; first compound 1 µM)	relative viability ([3]; first compound 0.01 µM)	relative viability ([3]; first compound 0.03162 µM)	relative viability ([3]; first compound 0.1 µM)	relative viability ([3]; first compound 0.3162 µM)	relative viability ([3]; first compound 1 µM)	relative viability ([4]; first compound 0.1265 µM)	relative viability ([4]; first compound 0.4 µM)	relative viability ([4]; first compound 1.265 µM)	relative viability ([4]; first compound 4 µM)	relative viability ([4]; first compound 0.04 µM)
NCI-H441	1.4	1.31	0.664	0.24	0.293	0.577	0.555	0.692	0.465	0.337	0.642	0.719	0.867	0.673	0.509	0.848	0.218	0.15	0.0844	–
NCI-H1703	0.124	0.0845	0.141	0.142	0.117	0.31	0.378	0.318	0.337	0.154	0.783	0.852	0.77	0.663	0.343	0.3	0.352	0.168	0.102	0.234
NCI-H1792	0.896	0.517	0.551	0.17	0.0979	0.935	1.16	0.966	0.965	0.848	0.957	0.979	0.949	0.978	0.913	0.815	0.688	0.635	0.321	1.11
Calu-6	–	–	–	–	–	1.16	1.06	0.907	1.12	0.382	0.861	0.809	0.722	0.723	0.289	1.1	0.673	0.167	0.124	1.1
SW 1573	–	–	–	–	–	0.952	1.22	1.03	0.924	0.763	0.806	0.817	0.889	0.633	0.657	0.96	0.479	0.563	0.132	1.38
PC-3 [JPC-3]	1.01	0.751	0.64	0.291	0.355	0.745	0.83	0.838	0.884	0.825	0.987	0.996	0.969	0.952	0.926	0.912	0.534	0.636	0.312	0.928
EMC-BAC-2	1.19	1.13	0.822	0.443	0.433	1.14	1.13	1.04	1.06	0.746	0.782	0.839	0.725	0.541	0.74	1.03	0.553	0.634	0.217	1.17
NCI-H1395	0.394	0.427	0.383	0.319	0.384	–	–	–	–	–	–	–	–	–	–	–	–	–	–	–
NCI-H2126	1.24	1.05	0.697	0.566	0.346	1.12	1.15	1.15	1.09	1.06	1.05	1.11	1.08	1.07	0.975	1.12	0.89	0.744	0.425	1.17
